Reference: patent US20260015360A1 (MOMA Therapeutics, Inc., priority 2023, published 2026)

What was measured:
[1] = biological target: T1, biotinylated Avi-POLΘ[2-894] (Homo sapiens, UniProt O75417); test: ATPase assay (ADP-Glo): POLΘ-mediated ATP hydrolysis; settings: read-out: Biochemical ATPase ADPGlo IC50
T1 construct: 1 nM biotinylated Avi-POLΘ[2-894]

DLD1 WT cells = test: DLD1 viability assay (CellTiter-Glo, 7 days), DLD1 WT; type: cell-based; settings: Homo sapiens, DLD-1, 168 h
DLD1 BRCA2 (−/−) cells = test: DLD1 viability assay (CellTiter-Glo, 7 days), DLD1 BRCA2 (−/−); type: cell-based; settings: Homo sapiens, DLD-1, 168 h, read-out: Viability IC50 (μM) DLD1 BRCA2 null

T1 sequence (O75417 2-894 limits assumed): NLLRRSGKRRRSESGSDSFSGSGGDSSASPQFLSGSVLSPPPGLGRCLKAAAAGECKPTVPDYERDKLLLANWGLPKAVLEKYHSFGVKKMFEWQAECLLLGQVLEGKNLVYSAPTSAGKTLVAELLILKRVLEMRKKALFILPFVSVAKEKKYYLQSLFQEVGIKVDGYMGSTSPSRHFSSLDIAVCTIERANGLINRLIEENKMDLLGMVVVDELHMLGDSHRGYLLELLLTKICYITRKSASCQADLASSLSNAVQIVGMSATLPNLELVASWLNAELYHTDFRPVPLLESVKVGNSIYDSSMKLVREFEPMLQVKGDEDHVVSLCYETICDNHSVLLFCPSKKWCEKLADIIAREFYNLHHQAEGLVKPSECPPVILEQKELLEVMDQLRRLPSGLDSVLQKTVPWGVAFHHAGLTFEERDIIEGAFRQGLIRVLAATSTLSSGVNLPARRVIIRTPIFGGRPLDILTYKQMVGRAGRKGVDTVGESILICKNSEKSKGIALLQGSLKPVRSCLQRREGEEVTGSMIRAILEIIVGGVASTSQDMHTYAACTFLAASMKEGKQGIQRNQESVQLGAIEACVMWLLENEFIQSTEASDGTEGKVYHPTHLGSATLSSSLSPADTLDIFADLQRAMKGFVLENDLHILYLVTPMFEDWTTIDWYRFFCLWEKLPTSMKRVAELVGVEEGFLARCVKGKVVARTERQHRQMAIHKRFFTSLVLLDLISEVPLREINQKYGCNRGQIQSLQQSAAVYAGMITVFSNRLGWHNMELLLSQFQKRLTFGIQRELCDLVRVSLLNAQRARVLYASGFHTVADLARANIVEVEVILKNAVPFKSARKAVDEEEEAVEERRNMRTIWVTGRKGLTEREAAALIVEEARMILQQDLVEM

With `COc1cnc(Cl)cc1-c1cc(C)ncc1C(=O)Nc1nc2ncc(N3CCO[C@H]4CCC[C@H]43)nc2s1` [Example 397, 2′-chloro-N-(6-((4aR,7aS)-hexahydrocyclopenta[b][1,4]oxazin-4(4aH)-yl)thiazolo[4,5-b]pyrazin-2-yl)-5′-methoxy-6-methyl-[4,4′-bipyridine]-3-carboxamide] the IC50 [1] was 1 to 15 nM, the IC50 (DLD1 WT cells) was > 10 µM and the IC50 (DLD1 BRCA2 (−/−) cells) was 0.001 to 0.1 µM.

With `COc1cnc(Cl)cc1-c1cc(C)ncc1C(=O)Nc1nc2ncc([C@H]3CC[C@H](C#N)CC3)nc2s1` [Example 454, 2′-chloro-N-(6-((1r,4r)-4-cyanocyclohexyl)thiazolo[4,5-b]pyrazin-2-yl)-5′-methoxy-6-methyl-[4,4′-bipyridine]-3-carboxamide] the IC50 [1] was 1 to 15 nM, the IC50 (DLD1 WT cells) was > 10 µM and the IC50 (DLD1 BRCA2 (−/−) cells) was 0.001 to 0.1 µM.

For `COc1cnc(Cl)cc1-c1cc(C)ncc1C(=O)Nc1nc2ncc([C@@H]3CC[C@H](CO)C3)nc2s1` [Example 499, 2′-chloro-N-(6-((1R,3S)-3-(hydroxymethyl)cyclopentyl)thiazolo[4,5-b]pyrazin-2-yl)-5′-methoxy-6-methyl-[4,4′-bipyridine]-3-carboxamide], the IC50 [1] was 1 to 15 nM, the IC50 (DLD1 WT cells) was > 10 µM and the IC50 (DLD1 BRCA2 (−/−) cells) was 0.1 to 0.25 µM.

`COc1cnc(Cl)cc1-c1cc(C)ncc1C(=O)Nc1nc2ncc(N3CCC(OC(F)F)CC3)nc2s1` [Example 502, 2′-chloro-N-(6-(4-(difluoromethoxy)piperidin-1-yl)thiazolo[4,5-b]pyrazin-2-yl)-5′-methoxy-6-methyl-[4,4′-bipyridine]-3-carboxamide] was tested, and the IC50 [1] was 1 to 15 nM, the IC50 (DLD1 WT cells) was > 10 µM and the IC50 (DLD1 BRCA2 (−/−) cells) was 0.001 to 0.1 µM.

For `COc1cnc(Cl)cc1-c1cc(C)ncc1C(=O)Nc1nc2ncc(N3CCC(O)(C(F)F)CC3)nc2s1` [Example 504, 2′-chloro-N-(6-(4-(difluoromethyl)-4-hydroxypiperidin-1-yl)thiazolo[4,5-b]pyrazin-2-yl)-5′-methoxy-6-methyl-[4,4′-bipyridine]-3-carboxamide], the IC50 [1] was 1 to 15 nM, the IC50 (DLD1 WT cells) was > 10 µM and the IC50 (DLD1 BRCA2 (−/−) cells) was 0.001 to 0.1 µM.

For `COc1cnc(Cl)cc1-c1cc(C)ncc1C(=O)Nc1nc2ncc(N3CCC(CO)CC3)nc2s1` [Example 506, 2′-chloro-N-(6-(4-(hydroxymethyl)piperidin-1-yl)thiazolo[4,5-b]pyrazin-2-yl)-5′-methoxy-6-methyl-[4,4′-bipyridine]-3-carboxamide], the IC50 [1] was 1 to 15 nM, the IC50 (DLD1 WT cells) was > 10 µM and the IC50 (DLD1 BRCA2 (−/−) cells) was 0.001 to 0.1 µM.

For `COc1nc2c(cc1-c1cc(C)ncc1C(=O)Nc1nc3ncc(-c4ccncc4)nc3s1)OCCN2C` [Example 507, 4-(6-methoxy-4-methyl-3,4-dihydro-2H-pyrido[3,2-b][1,4]oxazin-7-yl)-6-methyl-N-(6-(pyridin-4-yl)thiazolo[4,5-b]pyrazin-2-yl)nicotinamide], the IC50 [1] was 1 to 15 nM, the IC50 (DLD1 WT cells) was > 10 µM and the IC50 (DLD1 BRCA2 (−/−) cells) was 0.1 to 0.25 µM.

With `COc1cnc(Cl)cc1-c1cc(C)ncc1C(=O)Nc1nc2ncc(N3CCC(C)(O)CC3)nc2s1` [Example 509, 2′-chloro-N-(6-(4-hydroxy-4-methylpiperidin-1-yl)thiazolo[4,5-b]pyrazin-2-yl)-5′-methoxy-6-methyl-[4,4′-bipyridine]-3-carboxamide] the IC50 [1] was 1 to 15 nM, the IC50 (DLD1 WT cells) was > 10 µM and the IC50 (DLD1 BRCA2 (−/−) cells) was 0.001 to 0.1 µM.

`COc1cnc(Cl)cc1-c1cc(C)ncc1C(=O)Nc1nc2ncc(N3CCC(O)(C(F)(F)F)CC3)nc2s1` [Example 511, 2′-chloro-N-(6-(4-hydroxy-4-(trifluoromethyl)piperidin-1-yl)thiazolo[4,5-b]pyrazin-2-yl)-5′-methoxy-6-methyl-[4,4′-bipyridine]-3-carboxamide] showed an IC50 [1] of 1 to 15 nM, an IC50 (DLD1 WT cells) of 2.5 to 5 µM and an IC50 (DLD1 BRCA2 (−/−) cells) of 0.001 to 0.1 µM.

In the case of `COc1cnc(Cl)cc1-c1cc(C)ncc1C(=O)Nc1nc2ncc(C3CCOCC3)nc2s1` [Example 512, 2′-chloro-5′-methoxy-6-methyl-N-(6-(tetrahydro-2H-pyran-4-yl)thiazolo[4,5-b]pyrazin-2-yl)-[4,4′-bipyridine]-3-carboxamide], the IC50 [1] is reported as 1 to 15 nM, the IC50 (DLD1 WT cells) is reported as > 10 µM and the IC50 (DLD1 BRCA2 (−/−) cells) is reported as 0.001 to 0.1 µM.

With `COc1cnc(Cl)cc1-c1cc(C)ncc1C(=O)Nc1nc2ncc(N3CCC(OC)CC3)nc2s1` [Example 514, 2′-chloro-5′-methoxy-N-(6-(4-methoxypiperidin-1-yl)thiazolo[4,5-b]pyrazin-2-yl)-6-methyl-[4,4′-bipyridine]-3-carboxamide] the IC50 [1] was 1 to 15 nM, the IC50 (DLD1 WT cells) was > 10 µM and the IC50 (DLD1 BRCA2 (−/−) cells) was 0.001 to 0.1 µM.
